Starred links: 1 amine or outer side, 2 acyl side, 3 side chain; linkers in the order of their positions; H or OH if unused. Non-standard residues stand in square brackets, D forms with d. Residues, ends and D or L forms follow the SMILES beside them. *: point of attachment. Nva(5-(4-Bn-piperidin-1-yl)) = N[C@@H](CCCN1CCC(Cc2ccccc2)CC1)C(=O)O; X5 = O=C1[C@@H](N[*:1])Cc2ccccc2CN1CCCC(=O)[*:2]; X1 = O=C1[C@@H](N[*:1])Cc2ccccc2CN1CCC(=O)[*:2]; Tic(7-OH) = O=C(O)[C@@H]1Cc2ccc(O)cc2CN1; Dmt = Cc1cc(O)cc(C)c1C[C@H](N)C(=O)O; d(hArg) = N=C(N)NCCCC[C@@H](N)C(=O)O; Nicotinoyl = O=C(c1cccnc1)*; dOrn = NCCC[C@@H](N)C(=O)O; dNMeA = CN[C@H](C)C(=O)O; Nlys = NCCCCNCC(=O)O; βAla = NCCC(=O)O
Key:
human MOPr [1] = target: T1, human MOPr (Homo sapiens, UniProt P35372); assay: cell-based; format: cell-based; design: expressed in transfected cells; HEK293-Glo20F cells (cAMP); conditions: for MOPr-induced G protein activation: in words; for Emax: read-out: MOPr (cAMP) Emax
Experimental: Stimulation by endogenous RF-amide peptides or test compounds for [^35S]-GTPγS binding to membranes from CHO cells expressing human NPFF1R or NPFF2R, were examined as reported. 1.6. Glo-Sensor cAMP Assay cAMP accumulation assay was essentially done as described with the following modifications: HEK293 cells stably expressing cAMP Glosensor-20F were used, with or without additional stable expression of each individual opioid receptor or NPFF1R. The cAMP responses were measured in presence of D-luciferin (1 mM).

human MOPr [2] = target: T1, human MOPr; assay: BRET1 β-arrestin-2 recruitment assay; format: cell-based; design: expressed in transfected cells; host or cells: HEK293 cells stably expressing eYFP-β-arrestin-2, transiently transfected with the Rluc8-MOP plasmid; conditions: for β-arrestin-2 recruitment: in words; for Emax: read-out: MOPr (β-arrestin-2) Emax;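 as to Emax: Emax relative to maximal DAMGO-induced BRET as 100%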;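 as to MOPr (β-arrestin-2) Emax: Emax relative to maximal DAMGO-induced BRET as 100%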
Experimental: Peak response amplitudes were normalized to basal and maximal (cells permeabilized with 20 μM digitonin) fluorescence levels. 1.8. β-Arrestin-2 recruitment assay The β-arrestin-2 recruitment assay was performed as described [34; 45] with minor modifications. Briefly, two days prior the experiment, HEK293 cells stably expressing eYFP-tagged β-arrestin-2 were transfected with the plasmid encoding Rluc8-MOP receptor. β-Arrestin-2 recruitment was measured at 37° C. in presence of 5 μM Coelenterazine H, 5 min after agonist addition.

[3] = Table 3B, read-out: MOPr (cAMP) EC50
[4] = Table 3B, — = non-detectable recruitment, read-out: MOPr (β-arrestin-2) EC50
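For MOPr (cAMP) Emax in this document: Emax relative to DAMGO as 100%.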

T1 sequence (P35372 whole entry): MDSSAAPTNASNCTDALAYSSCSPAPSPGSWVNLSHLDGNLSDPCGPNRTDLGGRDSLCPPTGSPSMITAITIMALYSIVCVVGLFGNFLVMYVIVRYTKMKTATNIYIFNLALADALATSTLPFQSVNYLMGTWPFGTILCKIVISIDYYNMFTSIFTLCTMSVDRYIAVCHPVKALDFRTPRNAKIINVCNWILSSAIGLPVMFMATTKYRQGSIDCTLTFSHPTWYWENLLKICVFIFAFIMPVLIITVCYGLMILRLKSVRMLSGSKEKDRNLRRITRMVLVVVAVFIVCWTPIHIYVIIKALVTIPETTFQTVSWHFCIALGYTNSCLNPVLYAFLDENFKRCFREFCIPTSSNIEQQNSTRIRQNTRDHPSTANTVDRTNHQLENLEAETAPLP

Row | SMILES | EC50 (human MOPr [1]; MOPr (cAMP) EC50, Table 3B) | MOPr-induced G protein activation (human MOPr [1]) | Emax (human MOPr [1]) | β-arrestin-2 recruitment (human MOPr [2]) | EC50 (human MOPr [1]; [3]) | EC50 (human MOPr [2]; [4]) | Emax (human MOPr [2]) | EC50 (human MOPr [2])
1 | Cc1cc(O)cc(C)c1C[C@H](NC(=N)N)C(=O)N[C@H](CCCNC(=N)N)C(=O)N[C@H]1Cc2ccccc2CN(CCC(=O)N[C@@H](CCCN2CCC(Cc3ccccc3)CC2)C(=O)N[C@@H](Cc2ccccc2)C(N)=O)C1=O [DP0032, Guanidyl-Dmt-D-Arg-Aba-β-Ala-Bpa-Phe-NH2] | 0.0126 µM | significant | 63% | non-detectable | – | – | – | –
2 | Cc1cc(O)cc(C)c1C[C@H](N)C(=O)N[C@H](CCCNC(=N)N)C(=O)N[C@H]1Cc2ccccc2CN(CCC(=O)N[C@@H](CCCN2CCC(Cc3ccccc3)CC2)C(=O)N[C@@H](Cc2ccccc2)C(=O)NCCC(N)=O)C1=O [DP0016, H-Dmt-D-Arg-Aba-β-Ala-Bpa-Phe-β-Ala-NH2] (H-[Dmt][dR][X1][Nva(5-(4-Bn-piperidin-1-yl))]F[βAla]-NH2) | – | – | 95% | – | 0.019 µM | 0.399 µM | 31% | –
3 | Cc1cc(O)cc(C)c1C[C@H](N)C(=O)N[C@H](CCCCN)C(=O)N[C@H]1Cc2ccccc2CN(CCC(=O)N[C@@H](CCCN2CCC(Cc3ccccc3)CC2)C(=O)N[C@@H](Cc2ccccc2)C(N)=O)C1=O [DP0029, H-Dmt-D-Lys-Aba-β-Ala-Bpa-Phe-NH2] (H-[Dmt][dK][X1][Nva(5-(4-Bn-piperidin-1-yl))]F-NH2) | – | significant | 72% | non-detectable | 0.0257 µM | – | – | –
4 | Cc1cc(O)cc(C)c1C[C@H](N)C(=O)N(C)[C@H](C)C(=O)N[C@H]1Cc2ccccc2CN(CCCC(=O)N[C@@H](CCCN2CCC(Cc3ccccc3)CC2)C(=O)N[C@@H](Cc2ccccc2)C(N)=O)C1=O [DP0017, H-Dmt-N(Me)-D-Ala-AbaGABA-Bpa-Phe-NH2] (H-[Dmt][dNMeA][X5][Nva(5-(4-Bn-piperidin-1-yl))]F-NH2) | – | significant | 70% | non-detectable | 0.0141 µM | – | – | –
5 | Cc1cc(O)cc(C)c1C[C@H](N)C(=O)N[C@H](CCCNC(=N)N)C(=O)N[C@H]1Cc2ccccc2CN(CCC(=O)N[C@H](CCCN2CCC(Cc3ccccc3)CC2)C(=O)N[C@@H](Cc2ccccc2)C(N)=O)C1=O [DP0027, H-Dmt-D-Arg-Aba-β-Ala-D-Bpa-Phe-NH2] | – | – | 95% | – | 0.0136 µM | ~0.18 µM | ~68% | –
6 | Cc1cc(O)cc(C)c1C[C@H](N)C(=O)N[C@H](CCCNC(=N)N)C(=O)N[C@@H](Cc1ccccc1)C(=O)N(C)CC(=O)N[C@@H](CCCN1CCC(Cc2ccccc2)CC1)C(=O)N[C@@H](Cc1ccccc1)C(N)=O [DP0024, H-Dmt-D-Arg-Phe-N(Me)Gly-Bpa-Phe-NH2] (HELM PEPTIDE1{[Cc1cc(O)cc(C)c1C[C@H](N)C(=O)[*:2]].[dR].F.[Sar].[O=C([C@H](CCCN1CCC(Cc2ccccc2)CC1)N[*:1])[*:2]].F.[am]}$$$$V2.0) | – | – | 97% | – | 0.0099 µM | ~0.05 µM | ~95% | –
7 | Cc1cc(O)cc(C)c1C[C@H](N)C(=O)N[C@H](CCCNC(=N)N)C(=O)N[C@H]1Cc2c(ccc3ccccc23)CN(CC(=O)N[C@@H](CCCN2CCC(Cc3ccccc3)CC2)C(=O)N[C@@H](Cc2c[nH]c3ccccc23)C(N)=O)C1=O [DP0023, H-Dmt-D-Arg-1AnaGly-Bpa-Trp-NH2] | 0.0091 µM | significant | 61% | non-detectable | – | – | – | –
8 | Cc1cc(O)cc(C)c1C[C@H](N)C(=O)N[C@H](CCCCNC(=N)N)C(=O)N[C@H]1Cc2ccccc2CN(CCC(=O)N[C@@H](CCCN2CCC(Cc3ccccc3)CC2)C(=O)N[C@@H](Cc2ccccc2)C(N)=O)C1=O [DP0033, H-Dmt-D-hArg-Aba-β-Ala-Bpa-Phe-NH2] (H-[Dmt][d(hArg)][X1][Nva(5-(4-Bn-piperidin-1-yl))]F-NH2) | – | significant | 41% | non-detectable | 0.0249 µM | – | – | –
9 | Cc1cc(O)cc(C)c1C[C@H](N)C(=O)N[C@H](CCCNC(=N)N)C(=O)N[C@@H](Cc1ccccc1)C(=O)N(C)[C@H](C)C(=O)N[C@@H](CCCN1CCC(Cc2ccccc2)CC1)C(=O)N[C@@H](Cc1ccccc1)C(N)=O [DP0030, H-Dmt-D-Arg-Phe-N(Me)-D-Ala-Bpa-Phe-NH2] (H-[Dmt][dR]F[dNMeA][Nva(5-(4-Bn-piperidin-1-yl))]F-NH2) | – | – | 111% | – | 0.0277 µM | ~0.15 µM | ~85% | –
10 | Cc1cc(O)cc(C)c1C[C@H](N)C(=O)N[C@H](CCCNC(=N)N)C(=O)N[C@@H](Cc1ccccc1)C(=O)N(C)CC(=O)N[C@@H](CCCN1CCC(Cc2ccccc2)CC1)C(=O)N[C@H](C(N)=O)C(C)C [DP0025, H-Dmt-D-Arg-Phe-N(Me)Gly-Bpa-Val-NH2] (HELM PEPTIDE1{[Cc1cc(O)cc(C)c1C[C@H](N)C(=O)[*:2]].[dR].F.[Sar].[O=C([C@H](CCCN1CCC(Cc2ccccc2)CC1)N[*:1])[*:2]].V.[am]}$$$$V2.0) | – | – | 110% | – | 0.0071 µM | ~0.05 µM | ~114% | –
11 | Cc1cc(O)cc(C)c1C[C@H](N)C(=O)N[C@H](CCCCNC(=O)c1cccnc1)C(=O)N[C@H]1Cc2ccccc2CN(CCC(=O)N[C@@H](CCCN2CCC(Cc3ccccc3)CC2)C(=O)N[C@@H](Cc2ccccc2)C(N)=O)C1=O [DP0034, H-Dmt-D-Lys(Nic)-Aba-β-Ala-Bpa-Phe-NH2] (H-[Dmt][dK](Nicotinoyl)[X1][Nva(5-(4-Bn-piperidin-1-yl))]F-NH2) | – | – | 92% | – | 0.0039 µM | – | ~18% | 0.005 to 0.05 µM
12 | Cc1cc(O)cc(C)c1C[C@H](N)C(=O)N[C@H](CCCNC(=N)N)C(=O)N[C@H]1Cc2ccccc2CN(CCC(=O)N[C@@H](CCCN2CCC(Cc3ccccc3)CC2)C(=O)N[C@H](Cc2ccccc2)C(N)=O)C1=O [DP0015, H-Dmt-D-Arg-Aba-β-Ala-Bpa-D-Phe-NH2] | – | – | 109 ± 0.4% | – | 0.0059 ± 0.0003 µM | 0.08 µM | 59% | –
13 | Cc1cc(O)cc(C)c1C[C@H](N)C(=O)N[C@H](CCCN1CCC(Cc2ccccc2)CC1)C(=O)N[C@H]1Cc2ccccc2CN(CCC(=O)N[C@@H](CCCN2CCC(Cc3ccccc3)CC2)C(=O)N[C@@H](Cc2ccccc2)C(N)=O)C1=O [DP0009, H-Dmt-D-Bpa-Aba-β-Ala-Bpa-Phe-NH2] | – | – | 35% | – | 0.8 µM | – | – | –
14 | Cc1cc(O)cc(C)c1C[C@H](N)C(=O)N[C@H](CCCN)C(=O)N[C@H]1Cc2ccccc2CN(CCC(=O)N[C@@H](CCCN2CCC(Cc3ccccc3)CC2)C(=O)N[C@@H](Cc2ccccc2)C(N)=O)C1=O [DP0028, H-Dmt-D-Orn-Aba-β-Ala-Bpa-Phe-NH2] (H-[Dmt][dOrn][X1][Nva(5-(4-Bn-piperidin-1-yl))]F-NH2) | – | significant | 75% | non-detectable | 0.0404 µM | – | – | –
15 | Cc1cc(O)cc(C)c1C[C@H](N)C(=O)N(CCCCN)CC(=O)N[C@H]1Cc2ccccc2CN(CCC(=O)N[C@@H](CCCN2CCC(Cc3ccccc3)CC2)C(=O)N[C@@H](Cc2ccccc2)C(N)=O)C1=O [DP0035, H-Dmt-Nlys-Aba-β-Ala-Bpa-Phe-NH2] (H-[Dmt][Nlys][X1][Nva(5-(4-Bn-piperidin-1-yl))]F-NH2) | – | – | 15% | – | 0.0484 µM | – | – | –
16 | Cc1cc(O)cc(C)c1C[C@H](N)C(=O)N1CCC[C@@H]1C(=O)N[C@H]1Cc2ccccc2CN(CCC(=O)N[C@@H](CCCN2CCC(Cc3ccccc3)CC2)C(=O)N[C@@H](Cc2ccccc2)C(N)=O)C1=O [DP0008, H-Dmt-D-Pro-Aba-β-Ala-Bpa-Phe-NH2] (H-[Dmt][dP][X1][Nva(5-(4-Bn-piperidin-1-yl))]F-NH2) | – | significant | 53 ± 0.7% | non-detectable | 0.0106 ± 0.0013 µM | – | – | –
17 | Cc1cc(O)cc(C)c1C[C@H](N)C(=O)N(C)[C@H](C)C(=O)N[C@H]1Cc2ccccc2CN(CCC(=O)N[C@@H](CCCN2CCC(Cc3ccccc3)CC2)C(=O)N[C@@H](Cc2ccccc2)C(N)=O)C1=O [DP0007, H-Dmt-N(Me)-D-Ala-Aba-β-Ala-Bpa-Phe-NH2] (H-[Dmt][dNMeA][X1][Nva(5-(4-Bn-piperidin-1-yl))]F-NH2) | – | – | 64 ± 6% | – | 0.04 ± 0.02 µM | 0.214 µM | 12% | –
18 | Cc1cc(O)cc(C)c1C[C@H](N)C(=O)N[C@H](CCCNC(=N)N)C(=O)N[C@H]1Cc2ccccc2CN(CCC(=O)N[C@@H](CCCN2CCc3ccccc3C2)C(=O)N[C@@H](Cc2ccccc2)C(N)=O)C1=O [DP0026, H-Dmt-D-Arg-Aba-β-Ala-THIQ-Phe-NH2] | – | – | 98% | – | 0.0024 µM | – | ~50% | –
19 | N=C(N)NCCC[C@@H](NC(=O)[C@@H]1Cc2ccc(O)cc2CN1)C(=O)N[C@H]1Cc2ccccc2CN(CCC(=O)N[C@@H](CCCN2CCC(Cc3ccccc3)CC2)C(=O)N[C@@H](Cc2ccccc2)C(N)=O)C1=O [DP0031, 7-OH-Tic-D-Arg-Aba-β-Ala-Bpa-Phe-NH2] (H-[Tic(7-OH)][dR][X1][Nva(5-(4-Bn-piperidin-1-yl))]F-NH2; N-terminus assumed) | – | – | 46% | – | 3.6 µM | – | ~40% | > 0.5 µM

From US20210002231A1 (Centre National de la Recherche Scientifique, priority 2018, published 2021)
